This is an account of results in PMC4721540, “Selective activators of protein phosphatase 5 target the auto-inhibitory mechanism” (Bioscience Reports, 2015).

One data set is described as follows: physchem. It counts as physicochemical. As to conditions: 20 °C, pH 7.5, aqueous buffer. On the procedure: (§1) Phosphatase assays for characterization of PP5 and PPH-5 properties were performed in 40 mM HEPES/KOH, 20 mM KCl, 5 mM MnCl2, 1 mM DTT, pH 7.5 and 60 mM pNPP at 20°C if not indicated otherwise. Phosphatase concentrations ranged from 50 to 500 nM in the assay. If indicated, the CeHsp90/DAF-21 peptide AEEDASRMEEVD was supplemented in the assay at a concentration of 60 μM. […] These concentrations were 70 μM for P5SA-1, 140 μM for P5SA-2, 50 μM for P5SA-3, 100 μM for P5SA-4 and 45 μM for P5SA-5.

The target of another data set is T1, PP5 (Rattus norvegicus, UniProt P53042).
T1 construct: His tag (inferred from pET28 vector and HisTrap purification); made in house; host or cells: E. coli BL21-CodonPlus (DE3)-RIL
T1 sequence (P53042 1-499): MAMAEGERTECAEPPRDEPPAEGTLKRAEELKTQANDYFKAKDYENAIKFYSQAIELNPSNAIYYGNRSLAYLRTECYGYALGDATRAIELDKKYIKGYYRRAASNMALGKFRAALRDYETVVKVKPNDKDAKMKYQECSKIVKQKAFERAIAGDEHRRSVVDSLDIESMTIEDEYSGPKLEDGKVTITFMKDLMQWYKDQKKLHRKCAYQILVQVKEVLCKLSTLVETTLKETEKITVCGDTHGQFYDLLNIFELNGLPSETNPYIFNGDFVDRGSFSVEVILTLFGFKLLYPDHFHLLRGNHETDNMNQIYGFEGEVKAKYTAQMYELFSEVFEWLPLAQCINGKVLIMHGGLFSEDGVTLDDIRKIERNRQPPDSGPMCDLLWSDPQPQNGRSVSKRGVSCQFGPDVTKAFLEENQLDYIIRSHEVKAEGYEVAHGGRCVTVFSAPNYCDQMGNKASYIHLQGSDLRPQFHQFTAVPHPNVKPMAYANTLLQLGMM
The data set can be described thus: pNPP phosphatase assay with rat PP5. It counts as biochemical, R. norvegicus. As to conditions: for fold activation: PP5 (R. norvegicus), compound at 100 μM. As to the method:
as §1

A further data set addresses T2, PPH-5 (Caenorhabditis elegans, UniProt Q9NES8).
T2 construct: made in house
T2 sequence (Q9NES8 1-496): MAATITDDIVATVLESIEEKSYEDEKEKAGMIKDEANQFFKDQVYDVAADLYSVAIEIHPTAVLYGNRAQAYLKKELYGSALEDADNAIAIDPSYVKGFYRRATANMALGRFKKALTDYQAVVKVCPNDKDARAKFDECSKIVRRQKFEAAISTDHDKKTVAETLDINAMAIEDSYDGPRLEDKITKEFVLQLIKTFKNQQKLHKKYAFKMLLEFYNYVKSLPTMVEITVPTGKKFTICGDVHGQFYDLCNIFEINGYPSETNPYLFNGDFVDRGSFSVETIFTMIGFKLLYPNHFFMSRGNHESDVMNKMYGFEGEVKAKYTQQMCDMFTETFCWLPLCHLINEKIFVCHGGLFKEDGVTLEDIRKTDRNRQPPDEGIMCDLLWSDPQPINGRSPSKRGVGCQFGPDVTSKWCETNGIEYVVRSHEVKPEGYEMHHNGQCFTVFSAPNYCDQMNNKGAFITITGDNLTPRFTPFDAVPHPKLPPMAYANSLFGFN
The data set can be described thus: pNPP phosphatase assay with nematode PPH-5. It is filed as biochemical, C. elegans. As to conditions: for kcat / fold activation: PPH-5 (C. elegans); for kcat: 60 mM pNPP, in presence of compound; for fold activation: based on kcat compared with PPH-5 basal activity; for activation of PPH-5 phosphatase activity: substances at 50 ng/ml, DMSO control. On the procedure:
The compound library consisting of 10000 compounds (New Chemistry and Discovery Chemistry Collection, ChemDiv) was screened using a chromometric phosphatase assay with para-nitrophenyl phosphate (pNPP) as substrate. Phosphatase activity was determined by the conversion of pNPP to para-nitrophenole and absorption of the product at 410 nm (ε: 15100 cm^−1 M^−1). Assays were performed in 96-well plates in a PerkinElmer EnVision instrument with 50 nM of PPH-5. Reaction volume was 100 μl in a buffer of 40 mM HEPES, pH 7.5, 20 mM KCl, 5 mM MnCl2 and 1 mM DTT. The reaction was started by adding pNPP to a final concentration of 60 mM. The slope of the reaction was determined and deviations of >30% were considered potential hits leading to a collection of 76 initial compounds. […] These 76 compounds were maintained and rescreened individually in a Varian Cary 100 spectrophotometer (Agilent Technologies) in Hellma SUPRASIL precision quarz cells (10-mm path length) and 140 μl of reaction volumes. Finally, five compounds were obtained as reproducible activators and selected for further characterization.
as §1

Structures are written as SMILES. ≈ marks a conversion by molar mass, not a printed value.

Consider `COc1ccc(-c2nc(Cc3ccc(Cl)cc3)no2)cc1OC` [P5SA-2], for which the solubility in “physchem” is 140 µM (≈ 46.3 µg/mL). The same compound came in with a fold activation on PP5 of 3.9. On PPH-5, the kcat amounted to 1.99 ± 0.43 s⁻¹, the fold activation is given as 3.2 and the “activation of PPH-5 phosphatase activity” value is “activate PPH-5”.

For the compound `CNC(=O)c1c(NC(=O)COCC(=O)Nc2sc3c(c2C(=O)NC)CCC3)sc2c1CCC2` [P5SA-5], the solubility in the data set “physchem” worked out at 45 µM (≈ 22.1 µg/mL). At PP5, this compound registered a fold activation of 8.6. On PP5 (compound at 10 μM), the “stimulation of full-length rat PP5 at lower concentration” value is on record as “effect at the lower concentration was detectable”. In addition, at PPH-5, the kcat was 5.22 ± 0.67 s⁻¹, the fold activation is recorded as 8.4 and the “activation of PPH-5 phosphatase activity” value is “activate PPH-5”. For the same compound, on PPH-5 (PPH-5, 60 μM MEEVD-containing peptide), the “influence of MEEVD-containing peptide on apparent affinity of activator” value is listed as “only a minor influence on the apparent affinity”.
